Common to all, as to experiment: NCI-60 cell line screen, 48 h
The subject of test [1] is SF-268 CNS.
Test [2] deals with SK-MEL-28 melanoma.
The test system of test [3] is HS 578T breast.
The test system of test [4] is NCI-H23 lung.
In test [5] the test system is MALME-3M melanoma.
The subject of test [6] is NCI-H460 lung.
Test [7] concerns T-47D breast.
For test [8], the system named is K-562 leukemia.
Test [9] relates to HOP-92 NSCLC.

The source of these data is PubChem BioAssay (NCI).

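Growth conditions: 96-well plates. Treatment: test compound, 48 hours, 5 concentrations. Analysis: linear interpolation between bracketing concentrations; unreached endpoints set to highest concentration. GI50 is the concentration that inhibits growth by half. The concentration for full growth arrest is given as TGI.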 Bounds are passed on as bounds.

For the molecule `CN(C)CCCn1c2c(c3ccncc3c1=O)C(=O)c1ccccc1-2`, the GI50 was 1.47 µM in test [1]; 1.72 µM in [2]; 1.74 µM in [3]; 1.08 µM in test [4]; 0.978 µM in [5]; 0.438 µM in test [6]. Moreover, the GI50 in test [7] was 1.67 µM; in [8], 0.573 µM; in test [9], 0.155 µM. Also, the TGI in test [1] is 10.7 µM; in [2], 4.7 µM; in test [3] it was 14.3 µM; in test [4], 9.63 µM; in [5] it was 2.5 µM; in test [6], 3.63 µM. Besides, the TGI in [7] came to 21 µM; in test [8], 12.3 µM; in [9], 2.39 µM.

Regarding `CCN1CCc2sc3[nH]c(=S)n(C)c(=O)c3c2C1`, the TGI in [1], in test [2], in test [3], in test [4], in test [5] and in test [6] was greater than 100 µM throughout. The TGI in [7], in test [8] and in test [9] was greater than 100 µM in each case.

For the molecule `CC1(C)CC(=O)C2=C(C1)OC1=C(CC(C)(C)CC1=O)C2c1ccccc1Cl` (configuration not stated), the TGI in test [1], in test [2], in test [3], in test [4], in test [5] and in test [6] was greater than 100 µM each time. The TGI in test [7], in [8] and in test [9] was greater than 100 µM each time.

Turning to `Cc1ccc(-n2cc(-c3ccc(Cl)cc3)c3c(NNC(=S)NCc4ccccc4)ncnc32)cc1`, the TGI is greater than 100 µM in [1]; greater than 100 µM in test [2]; greater than 100 µM in test [3]; 60.4 µM in test [4]; greater than 100 µM in test [5]; 12.4 µM in test [6]. In addition, the results for the TGI in test [7], in test [8] and in [9] were greater than 100 µM, greater than 100 µM and 66 µM, respectively.

In the case of `COc1ccc(N=Nc2ccc3oc(=O)c(C(=O)Nc4ccc(OC)cc4)cc3c2)cc1`, the TGI was 48.8 µM in test [1]; 41.1 µM in test [2]; 89.9 µM in test [3]; 43.8 µM in test [4]; 52.7 µM in test [5]; 79.4 µM in test [6]. Besides, the TGI in [7] was 29.8 µM; in test [8], greater than 100 µM; in [9], 50.1 µM.

In the case of `CC(=O)CC(=O)Nn1c(-c2cccs2)nc2ccc(I)cc2c1=O`, the TGI in test [1] was greater than 100 µM; in test [2], greater than 100 µM; in [3], 71.3 µM; in test [4], greater than 100 µM; in test [5], greater than 93.2 µM; in [6], greater than 100 µM. Besides, the TGI in [7], in test [8] and in test [9] was greater than 100 µM each time. In addition, in test [3], the GI50 was 18.9 µM.

In the case of `COc1cc(OC)cc(N(C)Cc2cnc3nc(N)nc(N)c3c2C)c1`, the TGI in [1], in test [2], in test [3], in test [4], in [5] and in test [6] was greater than 100 µM throughout. In addition, the TGI in [7], in test [8] and in test [9] was greater than 100 µM each time.

Regarding `Clc1ccc(CCN2CCN(CCCc3ccccc3)CC2)cc1Cl`, the TGI in [1] was found to be 35.3 µM; in test [2], 37.5 µM; in test [3], 44.9 µM; in test [4], 31.6 µM; in test [5], 33.8 µM; in [6], 33.5 µM. For the same molecule, the values for the TGI in test [7], in test [8] and in test [9] were 35.1 µM, greater than 100 µM and 23.6 µM, respectively.

For the molecule `COC(=O)[C@H]1ON2O[C@H](OC3CCCC[C@@H]3c3ccccc3)C[C@@H]3CC[C@H]1[C@@]32C` (some centres not stated), the TGI in test [1], in test [2], in [3], in [4], in test [5] and in test [6] was greater than 100 µM in each case. For the same molecule, the TGI in [7], in [8] and in [9] was greater than 100 µM throughout.

In the case of `C=CC(C)(C)c1cc([C@@H]2COc3cc(O)ccc3C2=O)c(O)c(OC)c1OC`, the TGI in test [1] worked out at 51 µM; in test [2], 52.6 µM; in test [3], 72.2 µM; in test [4], 27.2 µM; in [5] it was 43.2 µM; in test [6], 41.7 µM. The TGI is 35.2 µM in test [7], greater than 100 µM in test [8] and 21.6 µM in test [9].

As for `O=S(=O)(N1CCCCN(S(=O)(=O)C(F)(F)F)CCCN(S(=O)(=O)C(F)(F)F)CCCN(S(=O)(=O)C(F)(F)F)CCCCN(S(=O)(=O)C(F)(F)F)CCCN(S(=O)(=O)C(F)(F)F)CCC1)C(F)(F)F`, the TGI is greater than 100 µM in test [1]; greater than 100 µM in test [2]; 92.4 µM in test [3]; greater than 100 µM in test [4]; 49.5 µM in test [5]; greater than 100 µM in test [6]. Besides, the TGI in test [7], in [8] and in test [9] was greater than 100 µM each time.

In the case of `COc1cccc2c(NNc3ccc(Cl)cc3)c3ccc([N+](=O)[O-])cc3nc12`, the TGI was 28.1 µM in test [1]; greater than 100 µM in test [2]; 50.6 µM in test [3]; 33.4 µM in [4]; 22 µM in test [5]; 17.2 µM in test [6]. Moreover, the TGI in test [7] was 61.8 µM; in test [8] it was 97.2 µM; in test [9], 27.7 µM.

As for `O=C(C(=O)n1ccc2ccccc21)c1c[nH]c2ccccc12`, the TGI in test [1], in test [2], in test [3], in [4], in [5] and in test [6] was greater than 10 µM each time. In addition, the TGI in test [7], in test [8] and in test [9] was greater than 10 µM each time.
